# From ChEMBL document CHEMBL5726611, “Factor XIA inhibitors” (2019)
# Biological target: Coagulation factor XI (Homo sapiens, UniProt P03951)
# Test: Factor XIa Assay: The effectiveness of a compound of the present invention as an inhibitor of Coagulation Factor XIa can be determined using a relevant purified serine protease, and an appropriate synthetic substrate. The rate of hydrolysis of the chromogenic or fluorogenic substrate by the relevant serine protease was measured both in the absence and presence of compounds of the present invention. Assays were conducted at rt or at 37° C. […] A decrease in the rate of fluorescence change in the presence of inhibitor is indicative of enzyme inhibition. Such methods are known to one skilled in the art. […] Times required to achieve equilibration between enzyme and inhibitor were determined in control experiments. Initial velocities of product formation in the absence (Vo) or presence of inhibitor (Vi) were measured. Assuming competitive inhibition, and that unity is negligible compared Km/[S], [I]/e, and [I]/e (where [S], [I], and e respectively represent the total concentrations, of substrate, inhibitor and enzyme), the equilibrium constant (Ki) for dissociation of the inhibitor from the enzyme can be obtained from the dependence of Vo/Vi on [I] shown in the following equation.
# Sequence of Coagulation factor XI (P03951 19-387 limits assumed): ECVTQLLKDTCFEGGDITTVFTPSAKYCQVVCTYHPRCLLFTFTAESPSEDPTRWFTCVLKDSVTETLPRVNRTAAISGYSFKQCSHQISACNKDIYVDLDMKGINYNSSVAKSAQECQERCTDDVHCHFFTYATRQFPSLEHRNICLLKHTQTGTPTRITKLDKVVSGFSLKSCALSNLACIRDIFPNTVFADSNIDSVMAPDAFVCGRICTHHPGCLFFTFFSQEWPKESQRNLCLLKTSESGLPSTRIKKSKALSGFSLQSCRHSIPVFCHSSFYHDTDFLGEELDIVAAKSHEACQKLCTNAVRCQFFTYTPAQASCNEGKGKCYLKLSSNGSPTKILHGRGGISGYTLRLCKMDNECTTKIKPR
# Sequence of Coagulation factor XI (P03951 388-625 limits assumed): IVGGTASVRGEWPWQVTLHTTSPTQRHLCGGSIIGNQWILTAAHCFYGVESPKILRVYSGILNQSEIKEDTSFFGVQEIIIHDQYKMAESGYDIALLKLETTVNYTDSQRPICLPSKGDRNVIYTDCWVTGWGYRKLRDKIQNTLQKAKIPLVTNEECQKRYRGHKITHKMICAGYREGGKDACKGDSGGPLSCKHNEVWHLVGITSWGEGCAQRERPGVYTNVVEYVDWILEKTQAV
row,Compound,Ki [nM]
1,COC(=O)Nc1ccc2c(c1)NC(=O)CCCCC(c1ccc(-c3cc(Cl)ccc3OC(F)F)cn1)c1cccc-2c1 (stereo unspecified),181
2,COC(=O)Nc1ccc2c(c1)NC(=O)CCCCC(c1ccc(-c3cc(Cl)ccc3-n3cc(C(F)(F)F)cn3)cn1)c1cccc-2c1 (stereo unspecified),708
3,COC(=O)Nc1ccc2c(c1)NC(=O)CCCCC(c1ccc(-c3cc(Cl)ccc3-n3cc(C4CC4)nn3)cn1)c1cccc-2c1 (stereo unspecified),137
4,COC(=O)Nc1ccc2c(c1)NC(=O)CCCCC(c1ccc(-c3cc(Cl)ccc3-n3cc(Cl)nn3)cn1)c1cccc-2c1 (stereo unspecified),12
5,COC(=O)Nc1ccc2c(c1)NC(=O)CCCCC(c1ccc(-c3c(F)cccc3OC(F)F)cn1)c1cccc-2c1 (stereo unspecified),> 875
6,COC(=O)Nc1ccc2c(c1)NC(=O)CCCCC(c1ccc(-c3cc(Cl)ccc3C(F)(F)F)cn1)c1cccc-2c1 (stereo unspecified),> 875
7,COC(=O)Nc1ccc2c(c1)NC(=O)CCCCC(c1ccc(-c3cc(Cl)ccc3-n3cc(C#N)cn3)cn1)c1cccc-2c1 (stereo unspecified),211
8,COC(=O)Nc1ccc2c(c1)NC(=O)CCCCC(c1ccc(-c3cc(Cl)ccc3OC(F)(F)F)cn1)c1cccc-2c1 (stereo unspecified),399
9,COC(=O)Nc1ccc2c(c1)NC(=O)CCCCC(c1ccc(-c3c(-n4cc(C(F)(F)F)nn4)ccc(Cl)c3F)cn1)c1cccc-2c1 (stereo unspecified),2.02
10,COC(=O)Nc1ccc2c(c1)NC(=O)CCCCC(c1ccc(-c3cc(Cl)ccc3C#N)cn1)c1cccc-2c1 (stereo unspecified),41
11,COC(=O)Nc1ccc2c(c1)NC(=O)CCCCC(c1ccc(-c3cc(F)ccc3-n3cnnn3)cn1)c1cccc-2c1 (stereo unspecified),7
12,COC(=O)Nc1ccc2c(c1)NC(=O)CCCCC(c1ccc(-c3c(-n4cnnn4)ccc(Cl)c3F)cn1)c1cccc-2c1 (stereo unspecified),0.24
13,COC(=O)Nc1ccc2c(c1)NC(=O)CCCCC(c1ccc(-c3cc(Cl)ccc3-c3cnco3)cn1)c1cccc-2c1 (stereo unspecified),259
14,COC(=O)Nc1ccc2c(c1)NC(=O)CCCCC(c1ccc(-c3cc(Cl)ccc3-c3cnn(C(F)F)c3)cn1)c1cccc-2c1 (stereo unspecified),640
15,COC(=O)Nc1ccc2c(c1)NC(=O)CCCCC(c1ccc(-c3cc(Cl)ccc3-n3cc(C(F)F)nn3)cn1)c1cccc-2c1 (stereo unspecified),9.2
16,COC(=O)Nc1ccc2c(c1)NC(=O)CCCCC(c1ccc(-c3cc(Cl)ccc3-n3cc(C(F)(F)F)nn3)cn1)c1cccc-2c1 (stereo unspecified),18.3
